According to the supplement of paper PMC10627819:

How the values were obtained:
[1] = tested on: B. subtilis 168; assay: fitness (endpoint OD595 vs no drug) (fraction); higher = more growth
Method in brief: (§1)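 Plates with 384 wells were inoculated at OD595 0.01 using 30 µl of TSB, LB Lennox or CY, or 55 µl for S. pneumoniae. Incubation was at 37 °C, with OD595 measured every 30 min for 14 h. Fitness is the stationary-phase transition optical density over the robust mean of no-drug control wells, after first-reading background subtraction; it is capped at 1.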

[2] = tested on: S. aureus DSM 20231; assay: as above
Method in brief: as §1

[3] = tested on: S. pneumoniae D39V; assay: as above
Method in brief: as §1

[4] = tested on: B. subtilis 168; assay: Bliss interaction score (quartile over a dose matrix) (fitness difference); higher = more antagonism (negative = synergy)
Method in brief: (§2)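 Growth was read as OD595 when cultures entered stationary phase, and each value was divided by the plate's robust no-drug mean and capped at 1. This normalised ratio is the fitness value, and fitness for each single drug came from the combination data. The Bliss score subtracts the expected fitness, taken as the product, from the observed fitness and is given as quartiles across technical, biological and donor/recipient replicates.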

[5] = tested on: S. aureus DSM 20231; assay: as above
Method in brief: as §2

[6] = tested on: S. aureus Newman; assay: as above
Method in brief: as §2

[7] = tested on: S. pneumoniae D39V; assay: as above
Method in brief: as §2
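For Bliss interaction score (quartile over a dose matrix) in this document: first quartile when negative (synergy) and third quartile when positive (antagonism).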

O=C(O[C@@H]1Cc2c(O)cc(O)cc2O[C@@H]1c1cc(O)c(O)c(O)c1)c1cc(O)c(O)c(O)c1 [EGCG] + CC(=O)NC[C@H]1CN(c2ccc(N3CCOCC3)c(F)c2)C(=O)O1 [Linezolid]
fitness, one replicate
Settings	first compound 6.25 µg/mL	first compound 12.5 µg/mL	first compound 25 µg/mL	first compound 50 µg/mL
[1], partner 0.0625 µg/mL	0.854	0.61	0.286	–
[2], partner 1 µg/mL	–	0.0545	0.076	0.0554

fitness
Settings	first compound 6.25 µg/mL	first compound 12.5 µg/mL	first compound 25 µg/mL	first compound 50 µg/mL
[1], partner 0.125 µg/mL	0.582	0.482	–	–
[1], partner 0.25 µg/mL	–	–	0.0697	–
[1], partner 0.5 µg/mL	0.0716	0.0599	0.0583	–
[2], partner 0.125 µg/mL	–	0.745	0.816	0.708
[2], partner 0.25 µg/mL	–	0.551	0.559	0.563
[2], partner 0.5 µg/mL	–	0.223	0.25	0.159
[3], partner 0.105 µg/mL	–	0.735	0.634	0.752
[3], partner 0.2 µg/mL	–	0.533	0.517	0.411
[3], partner 0.21 µg/mL	–	0.604	0.688	0.64
[3], partner 0.4 µg/mL	–	0.283	0.249	0.218
[3], partner 0.42 µg/mL	–	0.505	–	0.498
[3], partner 0.8 µg/mL	–	0.12	0.0783	0.133

Settings	Bliss interaction score
[4]	0.0875
[5]	0.0748
[6]	0.0955
[7]	-0.1

CCC[C@@H]1C[C@@H](C(=O)N[C@@H]([C@H]2O[C@H](SC)[C@H](O)[C@@H](O)[C@H]2O)[C@@H](C)O)N(C)C1 [Lincomycin] + Cc1onc(-c2ccccc2)c1C(=O)N[C@@H]1C(=O)N2[C@@H]1SC(C)(C)[C@@H]2C(=O)O [Oxacillin]
fitness
Settings	first compound 0.1 µg/mL	first compound 0.2 µg/mL	first compound 0.215 µg/mL	first compound 0.4 µg/mL	first compound 0.43 µg/mL	first compound 0.8 µg/mL	first compound 0.86 µg/mL
[1], partner 0.002 µg/mL	0.911	0.939	–	0.913	–	–	–
[1], partner 0.004 µg/mL	0.881	0.923	–	0.926	–	–	–
[1], partner 0.008 µg/mL	0.891	0.877	–	0.83	–	–	–
[2], partner 0.0156 µg/mL	0.785	0.78	–	0.291	–	–	–
[2], partner 0.0312 µg/mL	0.655	0.682	–	0.259	–	–	–
[2], partner 0.0625 µg/mL	0.491	0.515	–	0.173	–	–	–
[3], partner 0.01 µg/mL	–	0.765	0.927	0.63	0.762	–	0.507
[3], partner 0.02 µg/mL	–	0.764	0.882	0.588	0.778	–	0.483
[3], partner 0.04 µg/mL	–	0.509	0.787	0.403	0.716	0.139	0.404

fitness, [1], one replicate
Settings	partner 0.0078 µg/mL	partner 0.0155 µg/mL	partner 0.031 µg/mL	partner 0.075 µg/mL	partner 0.15 µg/mL	partner 0.3 µg/mL
first compound 0.1 µg/mL	≥ 1	≥ 1	≥ 1	–	–	–
first compound 0.2 µg/mL	≥ 1	≥ 1	0.889	–	–	–
first compound 0.4 µg/mL	≥ 1	≥ 1	0.934	0.183	0.0398	0.0489
first compound 0.8 µg/mL	–	–	–	0.403	0.0361	0.0601
first compound 1.6 µg/mL	–	–	–	0.261	0.0594	0.0563

Settings	Bliss interaction score
[4]	-0.0676
[5]	0.119
[6]	0.137
[7]	0.189
